This is an account of results in publication PMC6185959 (2018).

Each structure is given as a SMILES string.

The subject of test [1] is Pu22 (MYC G4) (DNA, G4) TGAGGGTGGGGAGGGTGGGGAA
Put plainly: WaterLOGSY NMR. The note with it: 50 mM KCl, Tris-d11 pH 6.4, 20 °C, 5 µM oligo, 100 µM compound.

The subject of test [2] is Alexa Fluor 647-Pu27 (MYC G4) (DNA, G4) TGGGGAGGGTGGGGAGGGTGGGGAAGG
Put plainly: fluorescence intensity titration. As to conditions: 50 mM KCl, 25 mM Tris pH 6.4, 2-3% DMSO, RT, 50 nM oligo, 2:1 model.

The subject of test [3] is 5'-biotin Pu27 (MYC G4) (DNA, G4) TGGGGAGGGTGGGGAGGGTGGGGAAGG
Description: SPR. The note with it: 30 mM KCl; 10 mM Tris pH 6.4, 3% DMSO, 0.01% Tween-20; 1:1 Langmuir, highest affinity site.

In test [4] the test system is Pu22 (MYC G4) (DNA, G4) TGAGGGTGGGGAGGGTGGGGAA
Put plainly: CD melting. The note with it: 30 mM KCl; 10 mM Tris pH 6.3, 1% DMSO; 10 µM oligo, 40 µM compound; Table S2 prints 7.6 ± 0.5.

Test [5] has as its system Pu27 (MYC G4) (DNA, G4) TGGGGAGGGTGGGGAGGGTGGGGAAGG
Put plainly: CD melting. As to conditions: 30 mM KCl; 10 mM Tris pH 6.3, 1% DMSO; 10 µM oligo, 40 µM compound.

Test [6] deals with 131 (DNA, G4) TGAGGGTGGGTAAGGGTGGGTAA
Description: CD melting. As to conditions: 30 mM KCl; 10 mM Tris pH 6.3, 1% DMSO; 10 µM oligo, 40 µM compound.

In test [7] the test system is 122 (DNA, G4) TGAGGGTGGGTAGGGTAGGGTAA
Put plainly: CD melting. As to conditions: 30 mM KCl; 10 mM Tris pH 6.3, 1% DMSO; 10 µM oligo, 40 µM compound.

In test [8] the test system is 221 (DNA, G4) TGAGGGTAGGGTAGGGTGGGTAA
Description: CD melting. As to conditions: 30 mM KCl; 10 mM Tris pH 6.3, 1% DMSO; 10 µM oligo, 40 µM compound.

The subject of test [9] is 333 (DNA, G4) TGAGGGTTAGGGTAAGGGTTAGGGTAA
Put plainly: CD melting. The note with it: 30 mM KCl; 10 mM Tris pH 6.3, 1% DMSO; 10 µM oligo, 40 µM compound.

In test [10] the test system is GAT Tail (A25T) (DNA, G4) TGAGGGTGGGGAGGGTGGGGAT
Description: CD melting. As to conditions: 30 mM KCl; 10 mM Tris pH 6.3, 1% DMSO; 10 µM oligo, 40 µM compound.

In test [11] the test system is no tail (DNA, G4) GGGTGGGGAGGGTGGG
Description: CD melting. The note with it: 30 mM KCl; 10 mM Tris pH 6.3, 1% DMSO; 10 µM oligo, 40 µM compound.

Test [12] has as its system BCl2 (DNA, G4) AGGGGCGGGCGCGGGAGGAAGGGGGCGGGA
Put plainly: CD melting. The note with it: 30 mM KCl; 10 mM Tris pH 6.3, 1% DMSO; 10 µM oligo, 40 µM compound.

Test [13] relates to HIF1a (DNA, G4) GGGAGGGAGAGGGGGCGGG
Put plainly: CD melting. As to conditions: 30 mM KCl; 10 mM Tris pH 6.3, 1% DMSO; 10 µM oligo, 40 µM compound.

Test [14] has as its system MYB (DNA, G4) GGAGGAGGAGGTCACGGAGGAGGAGGAGAAGGAGGAGGAGGA
Description: CD melting. As to conditions: 30 mM KCl; 10 mM Tris pH 6.3, 1% DMSO; 10 µM oligo, 40 µM compound.

The test system of test [15] is dsDNA (DNA, duplex) CAATCGGATCGAATTCGATCCGATTG
Description: CD melting. The note with it: 30 mM KCl; 10 mM Tris pH 6.3, 1% DMSO; 10 µM oligo, 40 µM compound.

In test [16] the test system is MYC Pu22 G14T/G23T (NMR, 121) (DNA, G4) TGAGGGTGGGTAGGGTGGGTAA
Description: solution NMR structure. The note with it: 50 mM KCl; 25 mM Tris-d11 pH 6.4, 25 °C; twofold excess compound; 5' and 3' tetrads.

The test system is the same in test [17]. Description: 1H NMR titration, imino shifts. As to conditions: 50 mM KCl; 25 mM Tris-d11 pH 6.4, 10% DMSO-d6, 25 °C; overall KD, non-cooperative fit.
The test system of test [18] is Alexafluor647-KRAS (DNA, G4) AGGGCGGTGTGGGAAGAGGGAAGAGGGGGAGGCAG
Description: fluorescence intensity titration. As to conditions: 50 mM KCl; 25 mM Tris pH 6.4, 2-3% DMSO, RT; 50 nM oligo; 2:1 model.

In test [19] the test system is Alexafluor647-BCL2 (DNA, G4) AGGGGCGGGCGCGGGAGGAAGGGGGCGGGA
Put plainly: fluorescence intensity titration. The note with it: 50 mM KCl; 25 mM Tris pH 6.4, 2-3% DMSO, RT; 50 nM oligo; 2:1 model.

The test system of test [20] is Alexafluor647-Telomeric DNA (DNA, G4) TTAGGGTTAGGGTTAGGGTTAGGGTTA
Description: fluorescence intensity titration. As to conditions: 50 mM KCl; 25 mM Tris pH 6.4, 2-3% DMSO, RT; 50 nM oligo; 2:1 model.

The test system of test [21] is Alexafluor647-VEGF (DNA, G4) CGGGGCGGGCCGGGGGCGGGGT
Put plainly: fluorescence intensity titration. As to conditions: 50 mM KCl; 25 mM Tris pH 6.4, 2-3% DMSO, RT; 50 nM oligo; 2:1 model.

For test [22], the system named is Alexafluor647-NRAS (RNA, G4) UGUGGGAGGGGCGGGUCUGGG
Description: fluorescence intensity titration. The note with it: 50 mM KCl; 25 mM Tris pH 6.4, 2-3% DMSO, RT; 50 nM oligo; 2:1 model.

Consider `CN[C@H](C(=O)O)C(C)C`, for which the binding entry in test [1] (internal non-binding control) is reported as “no”.
`Cc1ccc(NC(=O)c2c(C)oc3ccc(O)c(CN4CCCCCC4)c23)cc1` yielded a dissociation constant KD in test [2] of 0.0232 ± 0.0076 mM.
For `Cc1oc2ccc(O)c(CN3CCCCCC3)c2c1C(=O)Nc1ccc(C(F)(F)F)cc1`, the KD in test [3] amounted to 1.4 ± 1.2 µM; in test [17] it was 0.0165 ± 0.0011 mM; in test [2] (Table S1 prints 9.1 ± 1.1) it was 0.0094 ± 0.0011 mM; in [18], 0.0442 ± 0.0038 mM; in test [19], 0.0173 ± 0.0044 mM; in test [20], 0.0403 ± 0.01 mM. In test [21], this compound gave a KD of 0.0183 ± 0.0034 mM. For the same compound, the ΔTm in test [4] was 7.4 ± 0.5 °C; in test [5] it was 7.5 ± 2.0 °C; in test [6], 4.6 ± 0.3 °C; in [7], 7.0 ± 0.3 °C; in test [8], 4.0 ± 1.0 °C; in [9] it was 0.0 ± 1.0 °C. Further, the ΔTm in test [10] was 4.5 ± 0.8 °C; in test [11] it was 4.3 ± 1.7 °C; in test [12], 4.2 ± 0.4 °C; in test [13], 0.2 ± 1.1 °C; in [14] it was 1.5 ± 0.3 °C; in test [15], 0.6 ± 0.7 °C. Besides, the binding result in test [1] was “yes”; in test [16] it was “yes”; in [22], “weak”.
